Test results as given in publication PMC7021728, “Structure of the agonist 12–HHT in its BLT2 receptor-bound state” (Scientific Reports, 2020).
Where a chain is given by its changes, count along the chain named.

Assays:
[1] = biological target: T1, wild-type BLT2 receptor (Homo sapiens, UniProt Q9NPC1); assay: Gi protein activation catalyzed by purified BLT2 (rate of GTPγS binding, Gαi2 intrinsic fluorescence); type: biochemical
T1 construct: made in house
T1 sequence (Q9NPC1 1-358): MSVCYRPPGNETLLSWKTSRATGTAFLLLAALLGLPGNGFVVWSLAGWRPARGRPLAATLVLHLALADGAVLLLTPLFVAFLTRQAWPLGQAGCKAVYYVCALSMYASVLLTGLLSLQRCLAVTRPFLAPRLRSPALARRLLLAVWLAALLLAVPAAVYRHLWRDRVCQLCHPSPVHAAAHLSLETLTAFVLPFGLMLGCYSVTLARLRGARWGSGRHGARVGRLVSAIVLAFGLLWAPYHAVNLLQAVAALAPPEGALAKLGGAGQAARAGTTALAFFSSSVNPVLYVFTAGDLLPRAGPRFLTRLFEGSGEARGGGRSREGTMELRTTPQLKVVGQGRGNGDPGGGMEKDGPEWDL
Procedure: Gαi2 and Gβ1γ2 were prepared as previously described. Briefly, agonist-dependent functional coupling of the purified receptor to Gαi2β1γ2 was assessed through the rate of GTPγS binding at increasing agonist concentrations determined by monitoring the relative increase in the intrinsic fluorescence ( λexcitation=300nm , λemission=345nm ) of Gαi2 (200 nM of purified G protein) in the presence of BLT2 (20 nM) in buffer containing 10 mM MOPS, pH 7.2, 130 mM NaCl, and 2 mM MgCl2 at 15 °C after the addition of 10 μM GTPγS. The data were normalized to the fluorescence maximum obtained in the presence of saturating concentrations in 12–HHT (10 μM).

[2] = biological target: T2, BLT2 E185^5.42A (Homo sapiens, UniProt Q9NPC1, E185A); assay: Gi protein activation catalyzed by BLT2 mutant; type: biochemical
T2 construct: made in house
T2 sequence (Q9NPC1 1-358 E185A): T1 sequence (Q9NPC1 1-358) with E185A
Procedure: (§1) All mutations were introduced in the wild-type BLT2 receptor by PCR-mediated mutagenesis using the QuickChange multisite-directed mutagenesis kit (Stratagene) and the wild-type BLT2 construct as a template. Mutations were confirmed by nucleotide sequencing. […] Gαi2 and Gβ1γ2 were prepared as previously described. […] The data were normalized to the fluorescence maximum obtained in the presence of saturating concentrations in 12–HHT (10 μM).

[3] = biological target: T3, BLT2 H177^ECL2A (Homo sapiens, UniProt Q9NPC1, H177A); assay: Gi protein activation catalyzed by BLT2 mutant; type: biochemical
T3 construct: made in house
T3 sequence (Q9NPC1 1-358 H177A): T1 sequence (Q9NPC1 1-358) with H177A
Procedure: as §1

[4] = biological target: T4, BLT2 R160^4.64A (Homo sapiens, UniProt Q9NPC1, R160A); assay: Gi protein activation catalyzed by BLT2 mutant; type: biochemical
T4 construct: made in house
T4 sequence (Q9NPC1 1-358 R160A): T1 sequence (Q9NPC1 1-358) with R160A
Procedure: as §1

[5] = biological target: T5, BLT2 T274^7.39A (Homo sapiens, UniProt Q9NPC1, T274A); assay: Gi protein activation catalyzed by BLT2 mutant; type: biochemical
T5 construct: made in house
T5 sequence (Q9NPC1 1-358 T274A): T1 sequence (Q9NPC1 1-358) with T274A
Procedure: as §1

[6] = biological target: purified BLT2 receptor; design: method as in PMID 21688157; details: cited from earlier work

In the case of `CCCCC[C@H](O)/C=C/C=C/C/C=C\CCCC(=O)O` [12–HHT, 12S–hydroxyheptadeca-5Z,8E,10E-trienoic acid], the EC50 ([1]; construct wt, Gi protein activation) is reported as 21 nM, the EC50 ([1]; wild-type) is reported as 21 nM and the “effect of the mutation on ligand binding” value ([2]; E185A compared to wild-type, in words) is reported as “did not significantly affect”. For the same compound, the EC50 ([2]; construct E185^5.42A) was 70.7 nM, the “effect of the mutation on ligand binding” value ([3]; H177^ECL2 to alanine compared to wild-type, in words) was “do not display a significant impact on ligand binding” and the EC50 ([3]; construct H177^ECL2A) was 24.3 nM. The “effect of the mutation on ligand binding” value ([4]; R160^4.64A compared to wild-type, in words) was “no effect”, the EC50 ([4]; construct R160^4.64A) was 20.5 nM and the “effect of the mutation on ligand binding” value ([5]; T274^7.39A compared to wild-type, in words) was “do not impact receptor ligand properties”. For the same compound, the EC50 ([5]; construct T274^7.39A) was 27.7 nM, the Kd ([6]; purified BLT2 associated with amphipols in solution, in vitro) was roughly 60 nM and the “bound time compared with LTB4 (in vitro off-rate constant measurements)” value ([6]; ratio 12–HHT / LTB4) was 3.6 times.
